Laboratory results: patent publication US10376557B2, “Peptide fragments for inducing synthesis of extracellular matrix proteins” (HELIX BIOMEDIX, INC., priority 2006, dated 2019)
Ends that are not written are not given here.

Tests used:
Assay type in all cases: cell-based
Human dermal fibroblasts = test: SIRCOL collagen assay: soluble collagen released by dermal fibroblasts incubated with peptides; conditions: for Released collagen (μg/mL) 24 h / Released collagen (μg/mL) 48 h: peptide 50 μg/mL (per Table 5); for Collagen / Collagen (μg): * = may not be significant, detection limit 2.5 μg; for Collagen produced (μg/mL) 24 hrs / Collagen produced (μg/mL) 48 hrs: [Peptide] 50 μg/mL; for Significant release of collagen at 24 h and 48 h: 25 μg/mL considered significant
Method: Several sequences identified in Examples 1 and 2 were synthesized using standard peptide chemistry and assayed for the stimulation of collagen from dermal fibroblasts. The synthesized peptides were amidated at the C-terminus, which rendered the tetrapeptides less susceptible to protease degradation and increased their solubility compared to the free acid forms. Human dermal fibroblasts were incubated in 96-well plates at 37° C. and 5% CO2 for 24 and 48 hours in 150 μL complete cell culture media (Cascade Biologics, Portland, Oreg.; Cat. No. M-106-500), supplemented with Low Serum Growth Supplement (Cascade Biologics, Portland, Oreg.; Cat. No. […] Each well was seeded with 10,000 cells. Following the incubation, 100-μL medium samples were recovered from each well and assayed for collagen production
The assays were performed by Tebu-bio Laboratories (France) using the SIRCOL™ Collagen Assay Kit (Biocolor Assays, UK) following the manufacturer's protocol. The SIRCOL™ Collagen Assay is a quantitative dye-binding method designed for the analysis of soluble collagens released into culture medium by mammalian cells during in vitro culture. The collagen of the tested samples binds to the anionic SIRCOL™ dye. The collagen-dye complexes precipitate out of solution and are pelleted by centrifugation. The recovered collagen-dye pellet was dissolved in an alkaline solution prior to absorbance measurements. Duplicate measurements were taken at the 24 and 48 hour times from two separate samples. The four measurements for each sample were averaged. The absorbance of reagent blanks, collagen standards, and samples were measured at 560 nm. The reagent blank absorbance was subtracted from the absorbance from each sample at 24 and 48 hours.
Two separate data sets were used to generate two collagen standard calibration curves. The first calibration curve was generated for purposes of calculating the quantity of collagen in samples H6 (combination of SEQ ID NOs:1-4), […] (SEQ ID NOs:1-8, respectively) and H15 (combination of SEQ ID NOs:5-8). The second calibration curve was generated for calculating the quantity of collagen in samples H16 (SEQ ID NO:9), H21-23 (SEQ ID NOs:10-12, respectively), H25-26 (SEQ ID NOs:13-14, respectively), or H29-30 (SEQ ID NOs:15-16, respectively), H32 (SEQ ID NO:17), H33 (combination of SEQ ID NOs:9-12), H34 (combination of SEQ ID NOs:11-14), H35 (combination of SEQ ID NOs:13-16), H36 (combination of SEQ ID NOs:1, 6, 5, 8), H37 (SEQ ID NO: 17) and H38 (SEQ ID NO:8) from the absorbance measurements was created by plotting the Abs560nm of the known collagen standards versus the respective concentrations of the collagen standards (in micrograms) each time a series of assays were performed. With respect to each data set, the same calibration curve was used for samples taken at the 24 and 48 hour times (Tables 2A and 2B). Accordingly, different standard curves were prepared immediately prior to performing each series of assays.
A linear regression was performed from plotting the Abs560nm values versus concentrations of the respective collagen standards using MICROSOFT EXCEL™. […] As the results were identical, only the 24-hour time period was used for the second series calibration curves. The formula of the line obtained on assay date 1 and assay date 2 of the second series of samples was y=0.0178x and y=0.0162x, respectively. The peptide LL-37 (SEQ ID NO:18) was used as a positive control as it has been widely reported to have an impact upon wound healing in man (Heilborn et al., The Cathelicidin Anti-Microbial Peptide LL-37 Is Involved In The Re-Epithelialization Of Human Skin Wounds And Is Lacking In Chronic Ulcer Epithelium, J. Invest. Dermato. 120:379-89 (2003). The assay detection limit defined by the manufacturer is 2.5 μg. […]

[1] = system: human skin epithelial cells (CRL-2592); test: In vitro scratch wound closure of skin epithelial cell monolayer; conditions: for W-size (wound size) 0 hr: prior to peptide treatment; for W-size (wound size) 6 hr / % closure 6 hr / W-size (wound size) 10 hr / % closure 10 hr: peptide 20 to 40 μg/ml; for % closure 6 hr: PBS controls 19.40%, 19.20%; for % closure 10 hr: PBS controls 41.70%, 42.30%; for wound closure compared to PBS alone (in words): epithelial cell monolayer
Method: Wound healing experiments were performed on monolayers of human skin epithelial cells (CRL-2592) plated onto 12-well plates. Cells were serum-starved for 24 hours before experimentation. Confluent monolayers of CRL-2592 were wounded using a P200 (200-μL) pipette tip. The wounds were washed and picture-documented prior to peptide treatment. Peptides were added to a final concentration from 20 to 40 μg/ml. Cells were kept in an incubator at 37° C., 5% CO2, and 92% humidity, except when images were being captured for a short period at room temperature. Wound closure was followed at 6-hour and 10-hour time points. PBS-treated wounds were used as negative controls for comparison purposes.

[2] = system: human skin fibroblast monolayer; test: Wound closure in skin fibroblast monolayer (data not shown)
From the text: In vitro monolayer wound closure is a result of cell migration, which is important in many biological processes such as embryogenesis, angiogenesis, inflammatory reactions and wound repair. These processes are thought to be regulated by interactions with other cells, cytokines and ECM proteins.

[3] = check mark = yes, peptide 50 μg/mL
[4] = 24 hours, peptide 50 μg/mL, second series
[5] = 48 hours, peptide 50 μg/mL, second series

| Substance | Released collagen (μg/mL) 24 h (Human dermal fibroblasts) | Collagen produced (μg/mL) 24 hrs (Human dermal fibroblasts) | Released collagen (μg/mL) 48 h (Human dermal fibroblasts) | Collagen produced (μg/mL) 48 hrs (Human dermal fibroblasts) | Decrease in collagen release at 48 h v. 24 h (Human dermal fibroblasts; [3]) | W-size (wound size) 0 hr [1] | W-size (wound size) 6 hr [1] | % closure 6 hr [1] | W-size (wound size) 10 hr [1] | % closure 10 hr [1] | wound closure compared to PBS alone (in words) [1] | Average (A560 nm) (Human dermal fibroblasts; [4]) | Average minus blank (A560 nm) (Human dermal fibroblasts; [4]) | Collagen (Human dermal fibroblasts; [4]) | Average (A560 nm) (Human dermal fibroblasts; [5]) | Average minus blank (A560 nm) (Human dermal fibroblasts; [5]) | Collagen (Human dermal fibroblasts; [5]) | Significant release of collagen at 24 h and 48 h (Human dermal fibroblasts; [3]) | Collagen (μg) (Human dermal fibroblasts; [4]) | Collagen (μg) (Human dermal fibroblasts; [5]) | also measured |
| --- | --- | --- | --- | --- | --- | --- | --- | --- | --- | --- | --- | --- | --- | --- | --- | --- | --- | --- | --- | --- | --- |
| GEPG (Synthetic Peptide H11) | 45 µg/mL | 45 µg/mL | 21 µg/mL | 21 µg/mL | ✓ | 48 arbitrary | 39 arbitrary | 19% | 30 arbitrary | 37.50% | does not enhance wound closure or epithelial cell migration to any great extent | – | – | – | – | – | – | – | – | – | Average (A560 nm) (Human dermal fibroblasts; 24 hours, peptide 50 μg/mL): 0.14; Average minus blank (A560 nm) (Human dermal fibroblasts; 24 hours, peptide 50 μg/mL): 0.06; Collagen (Human dermal fibroblasts; 24 hours, peptide 50 μg/mL, 100 μL medium sample): 4.5 µg; Average (A560 nm) (Human dermal fibroblasts; 48 hours, peptide 50 μg/mL): 0.15; Average minus blank (A560 nm) (Human dermal fibroblasts; 48 hours, peptide 50 μg/mL): 0.03; Collagen (μg) (Human dermal fibroblasts; 48 hours, peptide 50 μg/mL, 100 μL medium sample): 2.1* μg |
| PGPP (Synthetic Peptide H26) | 29 µg/mL | 29 µg/mL | 35 µg/mL | 35 µg/mL | – | 25 arbitrary | 12 arbitrary | 52% | 2.75 arbitrary | 89% | significantly induces wound closure | 0.13 | 0.05 | 2.9 µg | 0.12 | 0.06 | 3.5 µg | ✓ | – | – | wound closure in fibroblast monolayer (in words) [2]: does not induce wound closure |
| PKGP (PKGP-NH2) [H21] | 25 µg/mL | 25 µg/mL | 29 µg/mL | 29 µg/mL | – | – | – | – | – | – | – | 0.12 | 0.04 | 2.5 µg | 0.11 | 0.05 | 2.9 µg | ✓ | – | – | – |
| PMGP (PMGP-NH2) [H25] | 13 µg/mL | 13 µg/mL | 7 µg/mL | 7 µg/mL | ✓ | – | – | – | – | – | – | 0.10 | 0.02 | – | 0.07 | 0.01 | – | – | 1.3* μg | 0.7* μg | – |
| PQGP (PQGP-NH2) [H29] | 4 µg/mL | 4 µg/mL | 19 µg/mL | 19 µg/mL | – | – | – | – | – | – | – | 0.09 | 0.01 | – | 0.09 | 0.03 | – | – | 0.4* μg | 1.9* μg | Increase in collagen release at 48 h v. 24 h (Human dermal fibroblasts; [3]): ✓ |
